Reference: patent US7833998B2, “Oral neurotherapeutic cephalosporin sulfoxide and sulfone-containing compositions” (Revaax Pharmaceuticals, LLC, priority 2003, dated 2010)

Tests used:
golden hamsters = conditions: King et al. 2001; effective anxiolytics at doses of 1 μg/kg and above; cited from earlier work
Wistar rats [1] = conditions: rat, literature validation of the method; cited from earlier work
[2] = tested on: extracellular neurotransmitter levels in the area of the nucleus accumbens; assay: microdialysis of nucleus accumbens, electrochemical detection of metabolites; format: in vivo, Sprague Dawley rats; conditions: rats, intra-peritoneal 10 ng to 100 μg/kg, dialysate 15-75 minutes post-treatment
Protocol: To test this hypothesis, extracellular neurotransmitter levels in the area of the nucleus accumbens were assessed with microdialysis following Δ^3-cefazolin sulfoxide treatment. The accumbens is part of the limbic forebrain best know for its association with the pathophysiology of schizophrenia, conditioned reinforcement and drug addiction but also thought to be involved in sensitization to early life trauma leading to the anxiety disorder PTSD or post traumatic stress disorder (Charney and Bremner (1999) The neurobiology of anxiety disorder. In: NEUROBIOLOGY OF MENTAL ILLNESS (Cahrney, D S, et al eds.), Oxford University Press, New York, pgs 494-517).
Method. Twenty-four male Sprague Dawley rats were anesthetized with sodium pentobarbital (50 mg/kg) and implanted with a unilateral microdialysis guide cannula aimed at the nucleus accumbens. Animals were divided into six groups of four animals each and treated with a range of cefazolin doses (saline vehicle, 10 ng, 100 ng, 1 μg, 10 μg, 100 μg/kg) (FIGS. 6a-c). Two days after recovery from surgery a microdialysis probe (2 mm) was lowered to the area and connected to an infusion pump through Tygon tubing. The dialysate was artificial CSF at pH 7.4 delivered at a flow rate of 1.8 μl/min. The first 30 minutes of dialysate was discarded. Thereafter, samples were collected at 15 minute intervals 45 minutes prior to and 75 minutes following intra-peritoneal administration of Δ^3-cefazolin sulfoxide. Samples were collected into microfuge tubes containing 5 μl of 0.16 N perchloric acid to stabilize catecholamines. At the end of the study, animals were sacrificed and the brains prepared for histology to verify the site of the microdialysis probe.
The levels of dopamine metabolites DOPAC (FIG. 6a) and HVA (FIG. 6b) and serotonin metabolite HIAA (FIG. 6c) were assessed by electrochemical detection. […] Measures from each of the four remaining samples collected between 15-75 minutes post-treatment were analyzed. […] Mean values were analyzed with a one-way ANOVA followed by Bonferroni's post hoc test.

BALBc mice = assay: radial arm maze, learning and memory; format: in vivo, mouse; conditions: intra-peritoneal 2.5 ng, 250 ng, 25 μg/kg
From the text: The radial arm maze is one of the most commonly used methods for testing spatial learning and memory in rodents. Developed by Olton and co-workers (Olton, D. S., Samuelson, R. J. (1976) J. Experimental Psychology, 2: 97-115), the maze provides the simultaneous choice of several alternative paths for the test subject. Animals must learn which locations provide food (place learning) using visuospatial cues. Animal care. Male BALBc mice weighing 21-23 gm were housed individually in a normal 12:12 light-dark cycle (light on at 0600 hr) and provide food and water ad libitum. The method described below was reported by Crusio et al., (1987) Brain Research, 425: 182-185. The radial arm maze consisted of a central platform and eight arms made of transparent Plexiglas. The central part measured 22 cm in diameter. The closed arms were 25 cm long, 6 cm high and 6 cm wide. Several fresh food pellets were deposited beyond the end of each arm behind a perforated wall. This arrangement served to prevent the animals from selecting a baited arm by smelling the presence or absence of a reward. […] Entry to an arm was counted when the mouse reached the perforated wall. […] The number of errors was recorded for each day of training. […] Dose response effects were assessed by means of a repeated measured two-way ANOVA followed by Bonferroni's post hoc test.

[3] = tested on: Syrian golden hamsters (Mesocricetus auratus); assay: resident/intruder model of offensive aggression (serenic activity); format: in vivo
From the text: Agonistic behavior can be classified as either offensive or defensive aggression (Blanchard, R. J., Blanchard, D. C. (1977) Physiology and Behavior, 1, 197-224; Adams, D. B. (1979) The Behavioral Brain Sciences, 2, 201-241; Albert, D. J. and Walsh, M. L. (1984) Neuroscience and Behavioral Reviews, 8, 5-24). Offensive aggression is characterized by the aggressor initiating an attack on an opponent, while defensive aggression lacks active approach. Both types of aggression have their own unique neurobehavioral systems. The stimuli that elicit offensive and defense attacks are different, as are the sequences of behaviors that accompany each agonistic response. […] Offensive aggression is easily studied using male golden hamsters tested in a resident/intruder paradigm, an established model of offensive aggression ([…]. (1988) Physiology and Behavior, 44, 235-239). Placing an unfamiliar male hamster into the home cage of another male hamster elicits a well-defined sequence of agonistic behaviors from the resident that includes offensive aggression. Animal Care. Male Syrian golden hamsters (Mesocricetus auratus) (140-150 g) obtained from Harlan Sprague-Dawley Laboratories (Indianapolis, Ind.) were housed individually in Plexiglas cages (24 cm×24 cm×20 cm), maintained on a reverse light:dark cycle ([…]:10D; lights on at 19:00 hr) and provided food and water ad libitum. Animals were acclimated to the reverse light:dark cycle for at least two weeks before testing. All behavioral tests were conducted during the dark phase of the circadian cycle. Behavioral Measures and Analysis. Hamsters are nocturnal and as such behavioral tests were performed during the first four hours of the dark phase under dim red illumination. The resident was scored for offensive aggression, e.g., latency to bite the intruder, total contact time with the intruder, the total number of bites, and flank marking, over a 10 minute test period ([…]. (1988) Physiology and Behavior, 44, 235-239). Flank marking is a form of olfactory communication in which a hamster arches its back and rubs pheromone producing flank glands against objects in the environment (Johnston, R. E. (1985) Communication, In: THE HAMSTER REPRODUCTION AND BEHAVIOR. Ed Siegel, H. I. Plenum Press, New York, pp 121-154). […] Parametric data, i.e., latencies and contact time, were analyzed with a one-way ANOVA followed by Newman-Keuls post hoc tests. Non-parametric data, i.e., number of bites and flank marks, were analyzed with Kruskal-Wallis tests followed by Mann-Whitney U tests to determine differences between groups. Method. […] Ninety min after oral gavage an intruder was placed into the home cage and the resident scored for offensive aggression. Following aggression testing, animals were screened for motor activity in an open field paradigm and sexual motivation (FIGS. 4a-b).

[4] = tested on: Syrian golden hamsters (Mesocricetus auratus); conditions: in vivo, po
From the text: Method. […] Ninety min after oral gavage an intruder was placed into the home cage and the resident scored for offensive aggression. Following aggression testing, animals were screened for motor activity in an open field paradigm and sexual motivation (FIGS. 4a-b).

Wistar rats [5] = assay: elevated plus-maze; format: in vivo, rat
From the text: The elevated plus-maze was developed for the assessment of anxiolytic and anxiogenic drug effects in the rat (Pellow et al., (1985) Journal of Neuroscience Methods 14: 149-167). The method has been validated behaviorally, physiologically, and pharmacologically. The plus-maze has two open arms and two enclosed arms. […] Conversely, anxiogenic compounds such as yohimbin or amphetamines reduce open arm entries and time spent in the open arms.
Method. Male Wistar rats weighing 250-300 g were group housed in a normal 12:12 light-dark cycle light on at 0800 hour and provided food and water ad libitum. The plus-maze consisted of two open arms, 50×10 cm, and two enclosed arms 50×10×40 cm with an open roof, arranged such that the two open arms were opposite to each other. The maze was elevated to a height of 50 cm. Four groups of five animals each were tested in the plus-maze 90 minutes following oral gavage of either vehicle, or 100 ng/kg, 10 μg/kg, or 1 mg/kg of delta-2-cefazolin-1-sulfoxide (Δ^2-cefazolin sulfoxide). At the start of the experiment the animal was place in the center of the plus maze facing the closed arm. Over a 3 minute observation period, animals were scored for the latency to enter the closed arm, time spent in the closed arm, and the number of open arm entries following the first occupation of the closed arm.

Molecule: O=C1CC2(CCCC2)CC(=O)N1CCCCN1CCN(c2ncccn2)CC1 [buspirone]
- effect on seed finding (golden hamsters): dramatically reduce

Molecule: CNCCCN1c2ccccc2CCc2ccccc21 [desipramine]
- effect on seed finding (golden hamsters): ineffective

Molecule: CN1C(=O)CN=C(c2ccccc2)c2cc(Cl)ccc21 [diazepam]
- number of entries into the open arms (Wistar rats [1]): significantly increase
- percentage of time spent in the open arms (Wistar rats [1]): significantly increase

Molecule: CNCCC(Oc1ccc(C(F)(F)F)cc1)c1ccccc1 (centres unmarked) [fluoxetine]
- effect on seed finding (golden hamsters): dramatically reduce

Molecule: COC(=O)[C@@H]1[C@H]2C[C@H]3c4[nH]c5ccccc5c4CCN3C[C@@H]2CC[C@@H]1O [yohimbine]
- effect on seed finding (golden hamsters): ineffective
- number of entries into the open arms (Wistar rats [1]): reduce
- percentage of time spent in the open arms (Wistar rats [1]): reduce

Molecule: Cc1nnc(SCC2=C(C(=O)O)N3C(=O)[C@@H](NC(=O)Cn4cnnn4)[C@H]3[S+]([O-])C2)s1 (some centres unmarked) [Δ^3-cefazolin sulfoxide, cefazolin-1-sulfoxide]
- DOPAC levels (dopamine metabolite) ([2]; pg/15 μl (FIG. 6a)): significant (*p<0.05; **p<0.01) dose-dependent increase
- HVA levels (dopamine metabolite) ([2]; pg/15 μl (FIG. 6b)): significant (*p<0.05; **p<0.01) dose-dependent increase
- HIAA levels (serotonin metabolite) ([2]; pg/15 μl (FIG. 6c)): significant (*p<0.05; **p<0.01) dose-dependent increase
- number of errors (BALBc mice; day five, vs vehicle): no significant difference
- number of errors (BALBc mice; testing days three and four, vs vehicle control (*p<0.05, **p<0.01) (FIG. 5)): significantly reduced

Molecule: delta-2-cefazolin-1-sulfoxide
- serenic activity, inhibiting offensive aggression ([3]; oral gavage): very effective serenic
- flank marking ([3]; oral gavage 100 ng/kg, 10 μg/kg, 1 mg/kg, 90 min, 10 minute test (FIG. 3d)): significantly increased
- latency to bite ([3]; oral gavage 100 ng/kg, 10 μg/kg, 1 mg/kg, 90 min, 10 minute test, p<0.01 (FIG. 3a)): significantly increased
- number of bites ([3]; oral gavage 100 ng/kg, 10 μg/kg, 1 mg/kg, 90 min, 10 minute test, p<0.01 (FIG. 3c)): decreased
- contact time ([3]; oral gavage, 90 min, 10 minute test, highest dose (1 mg/kg) (FIG. 3b)): significantly reduced at the highest dose
- motor activity (open field) [4]: no change
- sexual motivation [4]: no change
- anxiolytic activity in the elevated plus-maze (Wistar rats [5]; given orally to rats): dose-dependent anxiolytic activity
- latency to enter the closed arm (Wistar rats [5]; rats, oral gavage 100 ng/kg, 10 μg/kg, 1 mg/kg, 90 min, 3 minute observation, vs vehicle (FIG. 2a)): increased
- time spent in the open arm (Wistar rats [5]; rats, oral gavage 100 ng/kg, 10 μg/kg, 1 mg/kg, 90 min, vs vehicle (FIG. 2b)): significantly increased (p<0.01)
